For series [1], the system named is T1, PaPPAR.
T1 construct: gene PPAR
Format: biochemical, Petunia axillaris. To be noted: 2 mM NADPH, 0.1 M Tris-HCl pH 8.0, 1 h.

Series [2] concerns CaPPAR. It counts as biochemical, Capsicum annuum. As to conditions: 2 mM NADPH, 0.1 M Tris-HCl pH 8.0, 1 h.
Series [3] concerns O=C(O)C(=O)Cc1ccccc1. Put plainly: purified protein. To be noted: 2 mM NADPH, 0.1 M Tris-HCl pH 8.0, 1 h.
For series [4], the target named is T2, SlTRI (Solanum lycopersicum, UniProt A0A3Q7IM65).
T2 construct: gene LOC101265293; CDS cloned from cDNA into pET28a; recombinant His-tagged, Ni-NTA purified; Leu159 printed
Format: biochemical. As to conditions: 200 uM NADPH, 0.1 M potassium phosphate pH 6.4, 30 C.

In series [5] the target is T3, AbLS (Atropa belladonna, UniProt A0A3B6XRA5).
T3 construct: gene LS
To be noted: 1 mM tropine and 1 mM phenyllactate infiltrated; AbUGT1 coexpressed; 24 h.

T3 sequence (A0A3B6XRA5 34-476 limits assumed): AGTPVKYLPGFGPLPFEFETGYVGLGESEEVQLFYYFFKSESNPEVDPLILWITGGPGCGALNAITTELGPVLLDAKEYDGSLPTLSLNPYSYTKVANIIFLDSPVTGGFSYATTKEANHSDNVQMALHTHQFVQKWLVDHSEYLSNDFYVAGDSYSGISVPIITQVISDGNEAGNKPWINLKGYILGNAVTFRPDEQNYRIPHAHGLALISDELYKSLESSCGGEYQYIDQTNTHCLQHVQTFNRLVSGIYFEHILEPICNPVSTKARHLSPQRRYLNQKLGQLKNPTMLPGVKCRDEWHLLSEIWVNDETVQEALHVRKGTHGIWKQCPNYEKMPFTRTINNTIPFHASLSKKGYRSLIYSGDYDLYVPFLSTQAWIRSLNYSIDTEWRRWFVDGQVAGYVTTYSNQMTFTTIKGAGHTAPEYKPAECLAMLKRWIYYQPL
T2 sequence (A0A3Q7IM65 9-272): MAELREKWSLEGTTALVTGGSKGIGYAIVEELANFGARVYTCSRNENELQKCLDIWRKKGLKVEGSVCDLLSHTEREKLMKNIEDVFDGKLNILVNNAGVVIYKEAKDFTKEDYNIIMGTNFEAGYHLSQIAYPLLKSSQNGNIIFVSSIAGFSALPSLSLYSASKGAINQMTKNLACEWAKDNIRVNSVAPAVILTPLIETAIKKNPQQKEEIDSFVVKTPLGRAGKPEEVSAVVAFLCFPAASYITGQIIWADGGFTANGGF

A word on the Km: it is the concentration of substrate that gives half-maximal velocity. As for `O=C(O)C(=O)Cc1ccccc1` [phenylpyruvic acid], the Michaelis-Menten constant (Km) in series [1] was determined as 2650 ± 374 µM; in series [2], 3020 ± 485 µM.

One may read the kcat as the maximal rate divided by the concentration of active sites. SlPPAR (Solanum lycopersicum): in series [3], the Km amounted to 1380 ± 130 µM and the kcat was 0.03355 ± 0.00253 s⁻¹.

Turning to `CN1[C@@H]2CC[C@H]1CC(=O)C2` [tropinone], in series [4], the Michaelis-Menten constant (Km) entry was “TRI from tomato also showed TRI activity”.

Turning to `CN1[C@@H]2CC[C@H]1C[C@@H](O)C2` [tropine], the “transient expression in N. benthamiana leaves, littorine by UPLC-MS” value in series [5] was “we detected littorine in tobacco leaves expressing DsLS and AbLS”.

AbPPAR (Atropa belladonna): in series [3], the Km turned out to be 2085 ± 461.3 µM and the kcat is 0.0098 ± 0.00074 s⁻¹.

The record behind these values is article PMC10017790 (Nature Communications, 2023).
